Data from paper PMC2172902 (The Journal of Cell Biology, 2003).
Peptide text beside a SMILES is read from it. * marks the point of attachment. Cbz = O=C(OCc1ccccc1)*

Tested on: DLD-1 cells
Assay: chromosome alignment in cultures treated with proteosome inhibitor
Assay type: cell-based, human
Conditions: control cultures, 20 μM

`CC(C)C[C@@H](C=O)NC(=O)[C@H](CC(C)C)NC(=O)[C@H](CC(C)C)NC(=O)OCc1ccccc1` [MG132] (Cbz-Leu-Leu-Leu-aldehyde) was tested, and the proportion of metaphases was about 66% and the proportion of prometaphases was about 25%.
